Data reported in US8536201B2, “Pesticidal arylpyrrolidines” (Bayer Intellectual Property GmbH, priority 2009, dated 2013).

What was measured:
Assay type in all cases: in vivo
Spodoptera litura [1] = test: Tobacco cutworm (Spodoptera litura) larvae, sweet potato leaf dip test; details: 20 ppm; third instar larvae, treated sweet potato leaves, after 7 days
Description: Unless not mentioned otherwise, the test solutions were prepared as follows:
Solvent: dimethyl formamide, 3 parts by weight
Emulsifier: polyoxyethylene alkyl phenyl ether, 1 part by weight
To prepare the test solution, 1 part by weight of an active compound is mixed with the above-mentioned amount of solvent containing the above-mentioned amount of emulsifier, and the mixture is diluted with water to the desired concentration.
BIOLOGICAL TEST EXAMPLE 1.1
Tobacco Cutworm (Spodoptera litura) Larvae
Leaves of sweet potato were immersed in the test solution at the appropriate concentration, and the leaves were dried in air. The leaves were then placed in a petri dish having a diameter of 9 cm, and ten Spodoptera litura at third instar larvae were released therein. The petri dishes were placed in a temperature-controlled chamber at 25° C. After 2 days and 4 days more sweet potato leaves were added. After 7 days, the number of dead larvae was counted to calculate the insecticidal activity. An insecticidal activity of 100% means that all larvae were killed, whereas an insecticidal activity of 0% means that no larva was killed. In the current test, the results of two petri dishes for each treatment were averaged.

Spodoptera litura [2] = test: Tobacco cutworm (Spodoptera litura) larvae using artificial diet; details: 20 ppm, 3rd-instar larvae
Description: BIOLOGICAL TEST EXAMPLE 1.2
Tobacco Cutworm (Spodoptera litura) Larvae Using Artificial Diet
2.3 g of artificial diet powder is put into a PET cup (7.5 cm diameter, 4 cm depth). The powder was leveled to make a layer in the bottom of the cup. 5 ml of a chemical solution is poured onto the powder and spread uniformly. The cup with treated diet powder is placed quiet to let the diet jell. Into each testing cup five 3rd-instar larvae were released. The testing cup is closed with the lid and placed in a temperature-controlled room at 25° C. and 50-60% R.H., 16L8D lighting conditions.
The mortality in % was determined according to the following criteria:
1 larva dead: 20% Efficacy
5 larvae dead: 100% Efficacy

Aulacophora femoralis = test: Cucurbit leaf beetle (Aulacophora femoralis) cucumber leaf dip test; details: second instar larvae, treated cucumber leaves, after 7 days
Description: BIOLOGICAL TEST EXAMPLE 3
Cucurbit Leaf Beetle (Aulacophora femoralis)
Leaves of cucumber were immersed in the test solution at the appropriate concentration, and the leaves were dried in air. The leaves were then put in a plastic cup containing sterilized black soil and five Aulacophora femoralis at second instar larvae were released in the cup. The cups were placed in a temperature-controlled chamber at 25° C. After 7 days, the number of dead larvae was counted, and thus the insecticidal activity was calculated. An insecticidal activity of 100% means that all larvae were killed, whereas an insecticidal activity of 0% means that no larva was killed.

Tetranychus urticae = test: Two-spotted spider mite Tetranychus urticae spray test on kidney bean; details: adult mites, after 7 days
Description: BIOLOGICAL TEST EXAMPLE 2
Two-Spotted Spider Mite Tetranychus urticae
50 to 100 adult mites of Tetranychus urticae were inoculated to leaves of kidney bean at two-leaf stage planted in a pot of 6 cm in diameter. After one day, test solution at the appropriate concentration was sprayed thereon in a sufficient amount using a spray gun. After the spraying, the plant pot was placed inside a greenhouse, and after 7 days, the acaricidal activity was calculated. An acaricidal activity of 100% means that all mites were killed, an acaricidal activity of 0% means that no mite was killed.

Ctenocephalides felis = Ctenocephalides felis test (CTECFE), blood feeding; details: 100 ppm in cattle blood; adult unfed fleas, after 2 days
Description: BIOLOGICAL TEST EXAMPLE 7
Ctenocephalides felis—Test (CTECFE)
Solvent: Dimethyl Sulfoxide
To produce a suitable preparation of active compound, 10 mg of active compound are dissolved in 0.5 ml solvent, and the concentrate is diluted with cattle blood to the desired concentration. Approximately 20 adult unfed (Ctenocephalides felis) are placed in flea chambers. The blood chamber, sealed with parafilm on the bottom, are filled with cattle blood supplied with compound solution and placed on top of the flea chamber, so that the fleas are able to suck the blood. The blood chamber is heated to 37° C. whereas the flea chamber is kept at room temperature.
After 2 days mortality in % is determined. 100% means that all the fleas have been killed; 0% means that none of the fleas have been killed.

Compound | insecticidal activity (Spodoptera litura [1]) [%] | insecticidal activity (Spodoptera litura [2]) [%] | insecticidal activity (Aulacophora femoralis; 100 ppm) [%] | insecticidal activity (Tetranychus urticae; 100 ppm) [%] | insecticidal activity (Aulacophora femoralis; 20 ppm) [%] | activity (mortality in %) (Ctenocephalides felis) [%] | insecticidal activity (Tetranychus urticae; 20 ppm) [%]
CC(=O)NC(C)c1ccc(N2CCC(c3cc(Cl)cc(Cl)c3)(C(F)(F)F)C2)cc1 (racemic) [Compound 1] | 100 | 100 | 100 | – | – | – | –
CCC(=O)NC(C)c1ccc(N2CCC(c3cc(Cl)cc(Cl)c3)(C(F)(F)F)C2)cc1 (racemic) [Compound 2] | 100 | 100 | – | 100 | 100 | 95 | –
CCC(=O)NC(C)c1ccc(N2CCC(c3cc(Cl)cc(C(F)(F)F)c3)(C(F)(F)F)C2)cc1 (racemic) [Compound 4] | 100 | 100 | – | – | 100 | – | 100
CC(NC(=O)C1CC1)c1ccc(N2CCC(c3cc(Cl)cc(C(F)(F)F)c3)(C(F)(F)F)C2)cc1 (racemic) [Compound 5] | 100 | 100 | – | – | 100 | – | 100
CC(=O)NC(C)c1ccc(N2CCC(c3cc(Cl)c(Cl)c(Cl)c3)(C(F)(F)F)C2)cc1 (racemic) [Compound 6] | 100 | 100 | – | – | – | – | 100
CCC(=O)NC(C)c1ccc(N2CCC(c3cc(Cl)c(Cl)c(Cl)c3)(C(F)(F)F)C2)cc1 (racemic) [Compound 7] | 100 | 100 | 100 | – | – | – | 100
CC(=O)NC(C)c1ccc(N2CCC(c3cc(C(F)(F)F)cc(C(F)(F)F)c3)(C(F)(F)F)C2)cc1 (racemic) [Compound 9] | 100 | 100 | – | – | – | – | –
CC(NC(=O)C1CC1)c1ccc(N2CCC(c3cc(C(F)(F)F)cc(C(F)(F)F)c3)(C(F)(F)F)C2)cc1 (racemic) [Compound 11] | 100 | 100 | – | – | 100 | – | 100
CC(NC(=O)CC1CC1)c1ccc(N2CCC(c3cc(Cl)c(Cl)c(Cl)c3)(C(F)(F)F)C2)cc1 (racemic) [Compound 12] | – | 100 | – | – | – | 95 | 100
CC(NC(=O)CC1CC1)c1ccc(N2CCC(c3cc(C(F)(F)F)cc(C(F)(F)F)c3)(C(F)(F)F)C2)cc1 (racemic) [Compound 13] | – | 100 | – | – | – | – | 100
COCCC(=O)NC(C)c1ccc(N2CCC(c3cc(Cl)c(Cl)c(Cl)c3)(C(F)(F)F)C2)cc1 (racemic) [Compound 14] | – | 100 | 100 | – | – | 90 | 100
CC(=O)N[C@@H](C)c1ccc(N2CCC(c3cc(Cl)cc(Cl)c3)(C(F)(F)F)C2)cc1 (stereo partly shown) [Compound 1-b] | 100 | 100 | – | 100 | 100 | – | –
CCC(=O)N[C@@H](C)c1ccc(N2CCC(c3cc(Cl)cc(Cl)c3)(C(F)(F)F)C2)cc1 (stereo partly shown) [Compound 2-b] | 100 | 100 | – | – | 100 | – | –
CC(=O)NC(C)c1ccc(N2CCC(c3cc(Cl)cc(Cl)c3)(C(F)(F)F)C2)cc1Cl (stereo not shown) [Compound 3-66, reference compound] | 20 | – | – | – | 50 | – | –
C[C@H](NC(=O)C1CC1)c1ccc(N2CCC(c3cc(Cl)cc(Cl)c3)(C(F)(F)F)C2)cc1 (stereo partly shown) [Compound 3-b] | 100 | 100 | – | – | 100 | – | 100
CCC(=O)N[C@@H](C)c1ccc(N2CCC(c3cc(Cl)cc(C(F)(F)F)c3)(C(F)(F)F)C2)cc1 (stereo partly shown) [Compound 4-b] | 100 | 100 | – | – | 100 | – | 100
C[C@H](NC(=O)C1CC1)c1ccc(N2CCC(c3cc(Cl)cc(C(F)(F)F)c3)(C(F)(F)F)C2)cc1 (stereo partly shown) [Compound 5-b] | 100 | 100 | – | – | 100 | – | 100
CC(=O)N[C@@H](C)c1ccc(N2CCC(c3cc(Cl)c(Cl)c(Cl)c3)(C(F)(F)F)C2)cc1 (stereo partly shown) [Compound 6-b] | 100 | 100 | – | – | – | – | 100
CCC(=O)N[C@H](C)c1ccc(N2CCC(c3cc(Cl)c(Cl)c(Cl)c3)(C(F)(F)F)C2)cc1 (stereo partly shown) [Compound 7-a] | – | – | 100 | – | – | 80 | –
CCC(=O)N[C@@H](C)c1ccc(N2CCC(c3cc(Cl)c(Cl)c(Cl)c3)(C(F)(F)F)C2)cc1 (stereo partly shown) [Compound 7-b] | 100 | 100 | – | – | 100 | – | 100
C[C@H](NC(=O)C1CC1)c1ccc(N2CCC(c3cc(Cl)c(Cl)c(Cl)c3)(C(F)(F)F)C2)cc1 (stereo partly shown) [Compound 8-b] | 100 | 100 | – | – | 100 | 95 | 100
CCC(=O)N[C@H](C)c1ccc(N2CCC(c3cc(C(F)(F)F)cc(C(F)(F)F)c3)(C(F)(F)F)C2)cc1 (stereo partly shown) [Compound 10-a] | – | – | – | – | 100 | 90 | –
CCC(=O)N[C@@H](C)c1ccc(N2CCC(c3cc(C(F)(F)F)cc(C(F)(F)F)c3)(C(F)(F)F)C2)cc1 (stereo partly shown) [Compound 10-b] | 100 | 100 | – | – | 100 | – | 100
C[C@H](NC(=O)CC1CC1)c1ccc(N2CCC(c3cc(Cl)c(Cl)c(Cl)c3)(C(F)(F)F)C2)cc1 (stereo partly shown) [Compound 12-b] | – | 100 | 100 | – | – | – | 100
C[C@H](NC(=O)CC1CC1)c1ccc(N2CCC(c3cc(C(F)(F)F)cc(C(F)(F)F)c3)(C(F)(F)F)C2)cc1 (stereo partly shown) [Compound 13-b] | – | 100 | 100 | – | – | – | 100
COCCC(=O)N[C@@H](C)c1ccc(N2CCC(c3cc(Cl)c(Cl)c(Cl)c3)(C(F)(F)F)C2)cc1 (stereo partly shown) [Compound 14-b] | – | 100 | 100 | – | – | – | 100
C[C@H](NC(=O)c1c(F)cc(F)cc1F)c1ccc(N2CCC(c3cc(C(F)(F)F)cc(C(F)(F)F)c3)(C(F)(F)F)C2)cc1 (stereo partly shown) [Compound 16-b] | – | 100 | – | – | 100 | – | 100
C[C@H](NC(=O)C1CC1)c1ccc(N2CCC(c3cc(C(F)(F)F)nc(C(F)(F)F)c3)(C(F)(F)F)C2)cc1 (stereo partly drawn) [Compound 17-b, N-[(1S)-1-(4-{3-[2,6-bis(trifluoromethyl)pyridin-4-yl]-3-(trifluoromethyl)pyrrolidin-1-yl}phenyl)ethyl]cyclopropanecarboxamide] | – | 100 | – | – | 100 | – | 100
